Reference: patent US20090137637A1, “Tetrazolyl-Methylene Amino Acid Derivatives” (PFIZER INC., priority 2005, published 2009)
Values after ≈ are worked out from the molar mass of the structure shown.

Tests used:
[1] = target: MMP-13 catalytic domain (MMP-13CD) (Homo sapiens, UniProt P45452); assay: Thiopeptolide hydrolysis inhibition assay, MMP-13 catalytic domain; format: biochemical; settings: thiopeptolide substrate, HEPES pH 7.0, 22° C.
Description: (§1) In general, the MMP inhibition assays measure the amount by which a test compound reduces the hydrolysis of a thiopeptolide substrate catalyzed by a matrix metalloproteinase enzyme. Such assays are described in detail by Ye et al., in Biochemistry, 1992;31(45):11231-11235, which is incorporated herein by reference.
Some of the particular methods described below use the catalytic domain of the MMP-13 enzyme, namely matrix metalloproteinase-13 catalytic domain (“MMP-13CD”), rather than the corresponding full-length enzyme, MMP-13. It has been shown previously by Ye Qi-Zhuang, Hupe D., and Johnson L. (Current Medicinal Chemistry, 1996;3:407418) that inhibitor activity against a catalytic domain of an MMP is predictive of the inhibitor activity against the respective full-length MMP enzyme.
(§2) Thiopeptolide substrates show virtually no decomposition or hydrolysis at or below neutral pH in the absence of a matrix metalloproteinase enzyme. A typical thiopeptolide substrate commonly utilized for assays is Ac-Pro-Leu-Gly-thioester-Leu-Leu-Gly-OEt. A 100 μL assay mixture will contain 50 mM of N-2-hydroxyethylpiperazine-N′-2-ethanesulfonic acid buffer (“HEPES,” pH 7.0), 10 mM CaCl2, 100 μM thiopeptolide substrate, and 1 mM 5,5′-dithio-bis-(2-nitro-benzoic acid) (DTNB). The thiopeptolide substrate concentration may be varied, for example from 10 to 800 μM to obtain Km and Kcat values. The change in absorbance at 405 nm is monitored on a Thermo Max microplate reader (molecular Devices, Menlo Park, Calif.) at room temperature (22° C.). The calculation of the amount of hydrolysis of the thiopeptolide substrate is based on E412=13600 M^−1 cm^−1 for the DTNB-derived product 3-carboxy-4-nitrothiophenoxide. Assays are carried out with and without matrix metalloproteinase inhibitor compounds, and the amount of hydrolysis is compared for a determination of inhibitory activity of the test compounds.
(§3) Test compounds were evaluated at various concentrations in order to determine their respective IC50 values, the micromolar concentration of compound required to cause a 50% inhibition of catalytic activity of the respective enzyme.

MMP-8 catalytic domain = target: T1, MMP-8 catalytic domain (Homo sapiens, UniProt P22894); assay: Thiopeptolide hydrolysis inhibition assay, MMP-8 catalytic domain; format: biochemical; settings: thiopeptolide substrate; read-out: MMP-8CD IC50
T1 construct: MMP-8 catalytic domain
Description: as §1, §2, §3
(§4) Certain compounds of formula (I) have been assayed with MMP-1 full-length, MMP-2 full-length, MMP-3 catalytic domain, MMP-7 full-length, MMP-8 catalytic domain, MMP-9 full-length, and MMP-12 catalytic domain.

MMP-7 full-length = target: T2, MMP-7 full-length (Homo sapiens, UniProt P09237); assay: Thiopeptolide hydrolysis inhibition assay, MMP-7 full-length; format: biochemical; settings: thiopeptolide substrate; read-out: MMP-7FL IC50
T2 construct: MMP-7 full-length
T2 sequence (P09237 95-267): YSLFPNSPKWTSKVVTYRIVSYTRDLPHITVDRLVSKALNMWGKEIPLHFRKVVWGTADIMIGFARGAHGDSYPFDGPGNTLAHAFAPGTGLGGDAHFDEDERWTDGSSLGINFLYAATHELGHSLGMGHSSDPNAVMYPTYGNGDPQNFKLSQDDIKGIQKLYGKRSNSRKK
Description: as §1, §2, §3
(§5) The test described above for the inhibition of MMP-13 may also be adapted and used to determine the ability of the compounds of formula (I) to inhibit the matrix metalloproteases MMP-1, MMP-2, MMP-3, MMP-7, MMP-9, MMP-12, MMP-14, and MMP-17.
as §4

[2] = Solubility in pH 6.5 aqueous phosphate buffer (Chemical Method 1, PDS solubility); format: physicochemical; settings: thermodynamic from solid; saturated solution in pH 6.5 aqueous phosphate buffer, 5% glyme, UV-visible absorbance
Method: Solubility of a test compound of the present invention refers to solubility of the compound in a solvent mixture containing ethylene glycol dimethylether (“glyme”) and pH 6.5 aqueous phosphate buffer. The solubility was determined by measuring ultraviolet-visible absorbance of a saturated solution of the compound and comparing the absorbance value to absorbance values obtained for four standard solutions of the compound having known concentrations plotted on a 4-point ultraviolet-visible standard curve.
First, a saturated solution of the test compound of the present invention was prepared by adding from about 2- to about 5-mg of the compound to a 96-well plate and adding a volume of pH 6.5 aqueous phosphate buffer, sonicating the mixture for about 10 minutes, and then allowing it to equilibrate overnight (typically 12 to 24 hours). The saturated solution was visually inspected to ensure the presence of particles, and then filtered to give a filtrate of the saturated solution. The filtrate of the saturated solution and a blank (pH 6.5 aqueous phosphate buffer containing no test compound) were then transferred into separate wells in a 96-well UV-transparent disposable plate, and a small amount of glyme was added to each well to give 5% glyme concentration per well.
Standard solutions of the test compound were prepared by dissolving a known amount of the test compound in a known volume of 75/25 volume/volume (“v/v”) glyme/water, and diluting this solution into four different concentrations in 96-well plates with additional 75/25 v/v glyme/water. Then, aliquots from each of the four standard solutions were also transferred to the 96-well UV-transparent disposable plate containing pH 6.5 aqueous phosphate buffer until the glyme concentration in each well was 5%.
The prepared 96-well plate was transferred to a 96-well ultraviolet-visible plate reader, and the wells were scanned over wavelengths of from 220 nm to 350 nm with a step size of 2 nm. The ultraviolet-visible data (i.e., data generated at the same wavelength) were electronically exported to a spreadsheet and absorbance data for the filtrate of the saturated solution measured at one wavelength (i.e., the data that had the best linear fit as calculated by the highest regression coefficient, typically 0.98 or higher) and the corresponding standards absorbance data measured at the same wavelength were plotted as a standard absorbance-concentration curve based on the Lambert-Beer law. The solubility (i.e., saturation concentration) was then back calculated by comparing the absorbance of the filtrate of the saturated solution to the absorbance of the standard solutions of known concentrations at the same wavelength.

MMP-12 catalytic domain = target: T3, MMP-12 catalytic domain (Homo sapiens, UniProt P39900); assay: Thiopeptolide hydrolysis inhibition assay, MMP-12 catalytic domain; format: biochemical; settings: thiopeptolide substrate; read-out: MMP-12CD IC50
T3 construct: MMP-12 catalytic domain
Description: as §1, §2, §3, §5, §4

MMP-9 full-length = target: T4, MMP-9 full-length (Homo sapiens, UniProt P14780); assay: Thiopeptolide hydrolysis inhibition assay, MMP-9 full-length; format: biochemical; settings: thiopeptolide substrate; read-out: MMP-9FL IC50
T4 construct: MMP-9 full-length
Description: as §1, §2, §3, §5, §4

MMP-1 full-length = target: T5, MMP-1 full-length (Homo sapiens, UniProt P03956); assay: Thiopeptolide hydrolysis inhibition assay, MMP-1 full-length; format: biochemical; settings: thiopeptolide substrate; read-out: MMP-1FL IC50
T5 construct: have been assayed with MMP-1 full-length
T5 sequence (P03956 100-469): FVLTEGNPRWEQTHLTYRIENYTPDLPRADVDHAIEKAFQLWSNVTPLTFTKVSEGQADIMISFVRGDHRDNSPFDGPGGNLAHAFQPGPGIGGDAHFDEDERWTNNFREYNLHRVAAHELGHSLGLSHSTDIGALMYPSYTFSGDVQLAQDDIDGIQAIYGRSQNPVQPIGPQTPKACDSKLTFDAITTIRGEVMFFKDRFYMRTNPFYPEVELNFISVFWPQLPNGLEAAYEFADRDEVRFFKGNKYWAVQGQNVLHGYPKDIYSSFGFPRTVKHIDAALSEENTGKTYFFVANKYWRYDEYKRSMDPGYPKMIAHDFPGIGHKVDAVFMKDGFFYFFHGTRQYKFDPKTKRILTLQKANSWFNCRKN
Description: as §1, §2, §3, §5, §4

MMP-3 catalytic domain = target: T6, MMP-3 catalytic domain (Homo sapiens, UniProt P08254); assay: Thiopeptolide hydrolysis inhibition assay, MMP-3 catalytic domain; format: biochemical; settings: thiopeptolide substrate, MES pH 6.0; read-out: MMP-3CD IC50
T6 construct: MMP-3 catalytic domain
Description: as §1, §2, §3
The assay buffer used with MMP-3CD was 50 mM N-morpholinoethane sulfonate (“MES”) at pH 6.0 rather than the HEPES buffer at pH 7.0 described above.
The test described above for the inhibition of MMP-13 may also be adapted and used to determine the ability of the compounds of formula (I) to inhibit the matrix metalloproteases MMP-1, MMP-2, MMP-3, MMP-7, MMP-9, MMP-12, MMP-14, and MMP-17. […]

MMP-2 full-length = target: T7, MMP-2 full-length (Homo sapiens, UniProt P08253); assay: Thiopeptolide hydrolysis inhibition assay, MMP-2 full-length; format: biochemical; settings: thiopeptolide substrate; read-out: MMP-2FL IC50
T7 construct: MMP-2 full-length
T7 sequence (P08253 110-660): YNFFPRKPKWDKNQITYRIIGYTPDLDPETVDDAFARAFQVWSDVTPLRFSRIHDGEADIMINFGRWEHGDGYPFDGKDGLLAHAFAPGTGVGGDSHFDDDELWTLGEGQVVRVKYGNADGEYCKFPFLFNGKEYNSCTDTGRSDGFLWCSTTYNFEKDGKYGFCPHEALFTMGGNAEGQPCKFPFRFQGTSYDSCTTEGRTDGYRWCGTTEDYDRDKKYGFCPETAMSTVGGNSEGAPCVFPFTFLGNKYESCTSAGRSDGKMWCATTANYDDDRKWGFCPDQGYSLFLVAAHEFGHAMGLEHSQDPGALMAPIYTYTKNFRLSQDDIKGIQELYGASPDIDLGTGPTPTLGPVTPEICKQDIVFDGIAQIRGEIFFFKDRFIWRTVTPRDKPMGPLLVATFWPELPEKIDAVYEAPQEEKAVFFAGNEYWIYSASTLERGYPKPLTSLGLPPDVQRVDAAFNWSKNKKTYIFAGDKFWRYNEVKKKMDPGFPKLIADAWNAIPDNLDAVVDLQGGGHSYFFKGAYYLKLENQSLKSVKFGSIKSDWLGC
Description: as §1, §2, §3, §5, §4

T6 sequence (P08254 100-272 limits assumed, species assumed): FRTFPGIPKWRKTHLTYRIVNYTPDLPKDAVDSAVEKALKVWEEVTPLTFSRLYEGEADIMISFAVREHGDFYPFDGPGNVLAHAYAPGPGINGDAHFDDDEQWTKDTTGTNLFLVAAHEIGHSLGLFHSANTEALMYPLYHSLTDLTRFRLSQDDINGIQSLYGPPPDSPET
T4 sequence (P14780 94-707, species assumed): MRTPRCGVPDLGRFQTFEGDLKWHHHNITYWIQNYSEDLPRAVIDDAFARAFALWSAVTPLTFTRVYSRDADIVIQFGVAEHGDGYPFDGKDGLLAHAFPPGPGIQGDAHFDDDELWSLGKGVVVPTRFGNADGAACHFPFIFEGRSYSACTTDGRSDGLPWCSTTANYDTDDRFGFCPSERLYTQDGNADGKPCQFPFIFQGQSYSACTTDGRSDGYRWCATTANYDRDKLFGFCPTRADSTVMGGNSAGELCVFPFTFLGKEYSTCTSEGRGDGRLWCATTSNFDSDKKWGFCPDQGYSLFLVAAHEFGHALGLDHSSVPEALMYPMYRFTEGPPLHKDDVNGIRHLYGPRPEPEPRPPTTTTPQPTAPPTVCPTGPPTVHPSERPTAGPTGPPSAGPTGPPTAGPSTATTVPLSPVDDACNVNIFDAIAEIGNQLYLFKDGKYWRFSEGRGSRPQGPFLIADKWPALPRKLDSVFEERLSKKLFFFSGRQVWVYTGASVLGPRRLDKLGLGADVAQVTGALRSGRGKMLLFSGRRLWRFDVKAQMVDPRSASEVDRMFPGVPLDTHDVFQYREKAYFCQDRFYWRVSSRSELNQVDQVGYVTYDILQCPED
T1 sequence (P22894 100-262 limits assumed, species assumed): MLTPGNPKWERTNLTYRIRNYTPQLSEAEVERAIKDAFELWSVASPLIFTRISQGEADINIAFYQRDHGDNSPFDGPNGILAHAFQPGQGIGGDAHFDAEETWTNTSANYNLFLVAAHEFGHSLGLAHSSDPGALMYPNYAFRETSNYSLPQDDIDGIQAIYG
T3 sequence (P39900 106-263 limits assumed, species assumed): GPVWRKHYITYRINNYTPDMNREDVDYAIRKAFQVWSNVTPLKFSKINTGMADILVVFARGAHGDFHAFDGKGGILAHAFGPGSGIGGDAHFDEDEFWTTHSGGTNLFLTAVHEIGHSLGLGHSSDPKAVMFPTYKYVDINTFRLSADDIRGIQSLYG

Structure (SMILES)	IC50 [1] [µM]	IC50 (MMP-8 catalytic domain) [µM]	IC50 (MMP-7 full-length) [µM]	solubility [2] [µg/mL]	IC50 (MMP-12 catalytic domain) [µM]	IC50 (MMP-9 full-length) [µM]	IC50 (MMP-1 full-length) [µM]	IC50 (MMP-3 catalytic domain) [µM]	IC50 (MMP-2 full-length) [µM]
Cc1cc(-c2nnn(CC(=O)N3CCCC3C(=O)O)n2)cc(C(=O)NCc2ccc(F)cc2)n1 (stereo not drawn) [Example 3]	1.5			1200 (≈ 2570 µM)					
O=C(O)C1CCCN(CCCn2nnc(-c3cccc(C#CCc4ccc(F)cc4)c3)n2)C1 (stereo not drawn) [Example 4]	5.2	> 100	> 100		> 100	> 100	> 100	> 100	> 100
Cc1cc(-c2nnn(CC(=O)O)n2)cc(C(=O)NCc2ccc(F)cc2)n1 [Example I2, {5-[2-(4-fluoro-benzylcarbamoyl)-6-methyl-pyridin-4-yl]-tetrazol-2-yl}-acetic acid]	4.5			880 (≈ 2380 µM)					

Other lines, results leading:

IC50 [1] [µM]	IC50 (MMP-8 catalytic domain) [µM]	IC50 (MMP-7 full-length) [µM]	solubility [2] [µg/mL]	IC50 (MMP-12 catalytic domain) [µM]	IC50 (MMP-9 full-length) [µM]	IC50 (MMP-1 full-length) [µM]	IC50 (MMP-3 catalytic domain) [µM]	IC50 (MMP-2 full-length) [µM]	Structure (SMILES)
0.039	> 100	> 100	220 (≈ 498 µM)	> 100	> 100	> 100	> 100	75	Cc1cc(-c2nnn(CC(=O)NCCC(=O)O)n2)cc(C(=O)NCc2ccc(F)cc2)n1 [Example 2, 3-(2-{5-[2-(4-Fluoro-benzylcarbamoyl)-6-methyl-pyridin-4-yl]-tetrazol-2-yl}-acetylamino)-propionic acid]
0.041	> 100	> 100	580 (≈ 1360 µM)	> 100	> 100	> 100	> 100	> 100	Cc1cc(-c2nnn(CC(=O)NCC(=O)O)n2)cc(C(=O)NCc2ccc(F)cc2)n1 [Example 1, (2-{5-[2-(4-fluoro-benzylcarbamoyl)-6-methyl-pyridin-4-yl]-tetrazol-2-yl}-acetylamino)-acetic acid]
